Results taken from the NIST ThermoML archive (doi:10.1021/acs.jced.8b00948).

Test: xn = mol fraction of the nth substance listed
Settings: for surface tension liquid-gas: Pendant drop shape; for viscosity: 101 kPa, Liquid, Concentric cylinders viscometry

COS(=O)(=O)[O-].Cn1cc[n+](C)c1 [1,3-dimethylimidazolium methylsulfate] + CCCCCO
Settings | surface tension liquid-gas, 298.15 K [mN/m] | surface tension liquid-gas, 303.15 K [mN/m] | surface tension liquid-gas, 308.15 K [mN/m] | surface tension liquid-gas, 313.15 K [mN/m] | viscosity, 298.15 K [mPa·s] | viscosity, 303.15 K [mPa·s] | viscosity, 308.15 K [mPa·s] | viscosity, 313.15 K [mPa·s]
x1 = 0.1 | 28 | 27.6 | 27.2 | 26.9 | 9.23 | 7.19 | 6.2 | 5.25
x1 = 0.35 | 36.2 | 35.9 | 35.6 | 35.3 | 24.7 | 19.4 | 15.7 | 12.7
x1 = 0.54 | 42.6 | 42.3 | 42 | 41.7 | 38.2 | 29.9 | 24.1 | 19.8
x1 = 0.661 | 46.7 | 46.4 | 46.1 | 45.8 | 47.7 | 37.3 | 30 | 24.7
x1 = 0.79 | 51.1 | 50.8 | 50.5 | 50.3 | 58.9 | 46.5 | 37.5 | 30.8
x1 = 0.931 | 56.1 | 55.8 | 55.5 | 55.2 | 71.8 | 57.1 | 46 | 37.8
x1 = 1 | 58.5 | 58.2 | 57.9 | 57.6 | 78 | 61.9 | 49.9 | 40.9

CCCCCO [pentan-1-ol] + CCn1cc[n+](C)c1.COS(=O)(=O)[O-]
x2 = 0
Settings | surface tension liquid-gas [mN/m] | viscosity [mPa·s]
298.15 K | 24.7 | 3.51
303.15 K | 24.3 | 2.84
308.15 K | 23.9 | 2.64
313.15 K | 23.5 | 2.34

CCn1cc[n+](C)c1.COS(=O)(=O)[O-] [1-ethyl-3-methylimidazolium methylsulfate] + CCCO
Settings | surface tension liquid-gas, 298.15 K [mN/m] | surface tension liquid-gas, 303.15 K [mN/m] | surface tension liquid-gas, 308.15 K [mN/m] | surface tension liquid-gas, 313.15 K [mN/m] | viscosity, 298.15 K [mPa·s] | viscosity, 303.15 K [mPa·s] | viscosity, 308.15 K [mPa·s] | viscosity, 313.15 K [mPa·s]
x1 = 0.059 | 24.8 | 24.4 | 24 | 23.6 | 3.71 | 3.14 | 2.72 | 2.36
x1 = 0.228 | 29.5 | 29.1 | 28.8 | 28.5 | 9.94 | 8.07 | 6.8 | 5.75
x1 = 0.375 | 33.6 | 33.4 | 33.1 | 32.8 | 17 | 13.7 | 11.6 | 9.72
x1 = 0.524 | 38 | 37.7 | 37.4 | 37.2 | 24.7 | 19.8 | 16.6 | 13.9
x1 = 0.72 | 43.8 | 43.6 | 43.3 | 43 | 38.9 | 31.3 | 25.9 | 21.6
x1 = 0.874 | 48.6 | 48.3 | 48 | 47.7 | 52.7 | 42.5 | 35.1 | 29.2
x1 = 1 | 52.5 | 52.2 | 51.9 | 51.6 | 68.5 | 55.4 | 45.5 | 37.9

CCn1cc[n+](C)c1.COS(=O)(=O)[O-] [1-ethyl-3-methylimidazolium methylsulfate] + CCCCO
Settings | surface tension liquid-gas, 298.15 K [mN/m] | surface tension liquid-gas, 303.15 K [mN/m] | surface tension liquid-gas, 308.15 K [mN/m] | surface tension liquid-gas, 313.15 K [mN/m] | viscosity, 298.15 K [mPa·s] | viscosity, 303.15 K [mPa·s] | viscosity, 308.15 K [mPa·s] | viscosity, 313.15 K [mPa·s]
x1 = 0.041 | 25 | 24.7 | 24.3 | 23.9 | 3.84 | 3.3 | 2.86 | 2.45
x1 = 0.219 | 29.9 | 29.5 | 29.2 | 28.9 | 10.7 | 8.75 | 7.38 | 6.22
x1 = 0.417 | 35.3 | 35.1 | 34.7 | 34.5 | 20.3 | 16.4 | 13.8 | 11.4
x1 = 0.571 | 39.8 | 39.5 | 39.2 | 38.9 | 29 | 23.4 | 19.5 | 16.2
x1 = 0.731 | 44.4 | 44.2 | 43.9 | 43.6 | 41.1 | 33.1 | 27.5 | 22.8
x1 = 0.909 | 49.8 | 49.5 | 49.2 | 48.9 | 58.2 | 46.8 | 38.4 | 31.8
x1 = 1 | 52.5 | 52.2 | 51.9 | 51.6 | 68.5 | 55.4 | 45.5 | 37.9

CCCCO [butan-1-ol] + CCn1cc[n+](C)c1.COS(=O)(=O)[O-]
x2 = 0
Settings | surface tension liquid-gas [mN/m] | viscosity [mPa·s]
298.15 K | 23.9 | 2.57
303.15 K | 23.5 | 2.28
308.15 K | 23.1 | 2.01
313.15 K | 22.7 | 1.75

CCn1cc[n+](C)c1.COS(=O)(=O)[O-] [1-ethyl-3-methylimidazolium methylsulfate] + CCCCCO
Settings | surface tension liquid-gas, 298.15 K [mN/m] | surface tension liquid-gas, 303.15 K [mN/m] | surface tension liquid-gas, 308.15 K [mN/m] | surface tension liquid-gas, 313.15 K [mN/m] | viscosity, 298.15 K [mPa·s] | viscosity, 303.15 K [mPa·s] | viscosity, 308.15 K [mPa·s] | viscosity, 313.15 K [mPa·s]
x1 = 0.05 | 26.1 | 25.7 | 25.3 | 24.9 | 5.15 | 4.07 | 3.74 | 3.24
x1 = 0.284 | 32.3 | 32 | 31.6 | 31.3 | 14.8 | 11.9 | 10.2 | 8.52
x1 = 0.459 | 37.1 | 36.8 | 36.5 | 36.2 | 24.4 | 19.4 | 16.3 | 13.6
x1 = 0.613 | 41.4 | 41.1 | 40.8 | 40.5 | 34.7 | 27.3 | 22.5 | 18.7
x1 = 0.768 | 45.8 | 45.5 | 45.2 | 44.9 | 46.9 | 37 | 30.5 | 25.2
x1 = 0.922 | 50.3 | 50 | 49.7 | 49.4 | 60.9 | 48.8 | 40.1 | 33.3
x1 = 1 | 52.5 | 52.2 | 51.9 | 51.6 | 68.5 | 55.4 | 45.5 | 37.9

CCCCCO [pentan-1-ol] + COS(=O)(=O)[O-].Cn1cc[n+](C)c1
x2 = 0
Settings | surface tension liquid-gas [mN/m] | viscosity [mPa·s]
298.15 K | 24.7 | 3.51
303.15 K | 24.3 | 2.84
308.15 K | 23.9 | 2.64
313.15 K | 23.5 | 2.34

CCCO [propan-1-ol] + COS(=O)(=O)[O-].Cn1cc[n+](C)c1
x2 = 0
Settings | surface tension liquid-gas [mN/m] | viscosity [mPa·s]
298.15 K | 23.2 | 1.94
303.15 K | 22.8 | 1.72
308.15 K | 22.3 | 1.54
313.15 K | 21.9 | 1.38

CCCCO [butan-1-ol] + COS(=O)(=O)[O-].Cn1cc[n+](C)c1
x2 = 0
Settings | surface tension liquid-gas [mN/m] | viscosity [mPa·s]
298.15 K | 23.9 | 2.57
303.15 K | 23.5 | 2.28
308.15 K | 23.1 | 2.01
313.15 K | 22.7 | 1.75

CCCO [propan-1-ol] + CCn1cc[n+](C)c1.COS(=O)(=O)[O-]
x2 = 0
Settings | surface tension liquid-gas [mN/m] | viscosity [mPa·s]
298.15 K | 23.2 | 1.94
303.15 K | 22.8 | 1.72
308.15 K | 22.3 | 1.54
313.15 K | 21.9 | 1.38

COS(=O)(=O)[O-].Cn1cc[n+](C)c1 [1,3-dimethylimidazolium methylsulfate] + CCCO
Settings | surface tension liquid-gas, 298.15 K [mN/m] | surface tension liquid-gas, 303.15 K [mN/m] | surface tension liquid-gas, 308.15 K [mN/m] | surface tension liquid-gas, 313.15 K [mN/m] | viscosity, 298.15 K [mPa·s] | viscosity, 303.15 K [mPa·s] | viscosity, 308.15 K [mPa·s] | viscosity, 313.15 K [mPa·s]
x1 = 0.039 | 24.5 | 24 | 23.6 | 23.2 | 3.15 | 2.97 | 2.53 | 2.2
x1 = 0.208 | 30.1 | 29.8 | 29.4 | 29.1 | 10.7 | 8.55 | 6.76 | 6.05
x1 = 0.382 | 36.1 | 35.8 | 35.5 | 35.2 | 19.6 | 15.4 | 12.2 | 10.5
x1 = 0.561 | 42.3 | 42.1 | 41.8 | 41.6 | 31.3 | 25.1 | 20.1 | 16.8
x1 = 0.702 | 47.4 | 47.2 | 46.9 | 46.6 | 42.5 | 34.7 | 28.1 | 23.2
x1 = 0.912 | 55.1 | 54.9 | 54.6 | 54.3 | 65.2 | 52.9 | 42.7 | 35.3
x1 = 1 | 58.5 | 58.2 | 57.9 | 57.6 | 78 | 61.9 | 49.9 | 40.9

COS(=O)(=O)[O-].Cn1cc[n+](C)c1 [1,3-dimethylimidazolium methylsulfate] + CCCCO
Settings | surface tension liquid-gas, 298.15 K [mN/m] | surface tension liquid-gas, 303.15 K [mN/m] | surface tension liquid-gas, 308.15 K [mN/m] | surface tension liquid-gas, 313.15 K [mN/m] | viscosity, 298.15 K [mPa·s] | viscosity, 303.15 K [mPa·s] | viscosity, 308.15 K [mPa·s] | viscosity, 313.15 K [mPa·s]
x1 = 0.063 | 26 | 25.6 | 25.2 | 24.8 | 5.34 | 4.58 | 3.86 | 3.2
x1 = 0.221 | 31.2 | 30.9 | 30.6 | 30.2 | 13.5 | 10.5 | 8.53 | 7.18
x1 = 0.432 | 38.3 | 38.1 | 37.8 | 37.5 | 26.3 | 20.2 | 16.1 | 13.6
x1 = 0.64 | 45.5 | 45.3 | 45 | 44.7 | 41.4 | 32.6 | 26.1 | 21.9
x1 = 0.781 | 50.5 | 50.3 | 50 | 49.7 | 54 | 43.3 | 34.8 | 29
x1 = 0.927 | 55.8 | 55.5 | 55.2 | 55 | 69.7 | 55.5 | 45 | 37
x1 = 1 | 58.5 | 58.2 | 57.9 | 57.6 | 78 | 61.9 | 49.9 | 40.9
